Data on four compounds can be found in US20160045472A1, “UROLITHIN B FOR MUSCLE GROWTH” (PROCELL SPRL, priority 2013, published 2016).

Data set [1] concerns C2C12 murine skeletal muscle myoblasts. Description: diameter of C2C12 myotubes (anti-desmin labelling). The conditions noted are these: for mean diameter size of myotubes: C2C12 myotubes, urolithin B 15 μM 24 h, TNF-alpha 10 ng/mL 4 h, leucine 5 mM. The class given is cell-based. The protocol: The inventors selected C2C12 murine skeletal muscle myoblasts for measuring the effect of polyphenols on muscle metabolism, especially when submitted to inflammatory stress (e.g. upon TNF-alpha exposure). In these conditions, anabolism is blocked.
C2C12 myoblasts were differentiated for 4 days using 1% horse serum and 1% penicillin/streptomycin. The cells were thereafter grown for 24 h either with the same differentiation medium or with the differentiation medium supplemented with 15 μM urolithin B (conditions 5-8 of FIGS. 2-4 and of Table 1). Then the cells were grown either with the same differentiation medium or in the differentiation medium supplemented with 10 ng/mL TNF-alpha for 4 h (conditions 3-4 and 7-8 of FIGS. 2-4 and of Table 1). Thereafter, the cells were grown either with the same differentiation medium or in the differentiation medium supplemented with 5 mM leucine (conditions 2, 4, 6 and 8 of FIGS. 2-4 and of Table 1). The myotubes were labelled using anti-desmin antibodies, and nuclei labelling by Hoechst staining. Urolithin B consistently stimulates the diameter of myotubes.

The test system of a further data set is mTOR. Kind of data set: mTOR phosphorylation. In kind it is cell-based. From the text: The inventors then have measured mTOR phosphorylation again to reflect protein synthesis and have observed a marginal leucine-induced phosphorylation and a strong urolithin B-induced phosphorylation.
A further data set has as its system P70S6k. Kind of data set: P70S6k phosphorylation. In kind it is cell-based.
The subject of a further data set is androgen receptor. Description: androgen receptor agonism (concluded from bicalutamide blockade). In kind it is cell-based. The text has this: Finally, the inventors have measured the effect of rapamycin, on another mTOR inhibitor and of the anti-androgen bicalutamide (FIGS. 5-6 show the effect on the size of the muscular fibres) on the urolithin B-induced effects (including on the phosphorylation on mTOR, of AMPK, . . . ) and conclude that urolithin B acts upon binding and activating the androgen receptor, then by releasing the AMPK-inhibition on mTOR, increases protein synthesis in muscle cells, then the diameter of muscle fibres.

Data set [2] has as its system breast and on prostate cancer cell lines. The conditions noted are these: cited from earlier work.
In another data set the test system is C2C12 myoblasts. Kind of data set: toxicity of urolithin B addition. The class given is cell-based, murine. The conditions noted are these: concentrations of up to 40 μM. As for the experimental part: The inventors have firstly measured if the addition of urolithin B presents some toxicity, but no toxicity was measured for concentrations of up to 40 μM.
The subject of the next data set is Akt. Kind of data set: Akt phosphorylation. In kind it is cell-based. The text has this: (§1) The inventors then have measured Akt and PRAS40 phosphorylation still to analyse possible metabolism pathways. However, besides a tendency of synergy between the leucine and urolithin B addition, no major difference in phosphorylation patterns were observed.
The test system of a further data set is PRAS40. Description: PRAS40 phosphorylation. The class given is cell-based.
Description: as §1

A further data set relates to AMPK. Kind of data set: AMPK phosphorylation. In kind it is cell-based.
For a further data set, the system named is denervated muscle. Description: weight loss of denervated muscle, intravenous. In kind it is in vivo. The conditions noted are these: mammal.
The conditions of data set [3]: compared with urolithins A, C and D and whole polyphenol extract; cited from earlier work.
The conditions of data set [4]: human patients fed with pomegranate extract; compared with urolithin A; cited from earlier work.

Turning to `CC(C)C[C@H](N)C(=O)O` [Leucine, leucine], the “mean diameter size of myotubes” value in data set [1] is reported as 25.5. Moreover, the mTOR phosphorylation entry in the data set with mTOR is “marginal”.
For the compound TNFa, in data set [1], the “mean diameter size of myotubes” value was 16.7.
Turning to `O=c1oc2cc(O)ccc2c2ccc(O)cc12` [urolithin A, reference compound], the size of myotubes entry in data set [1] (up to 10 μM urolithin A, vs control) was “does not increase”. Besides, in the data set with P70S6k, the “induction of P70S6k phosphorylation” value is recorded as “almost no induction”. In addition, in the data set on androgen receptor, the androgen-receptor agonist result was “not”. The anti cancer activity entry in [2] was “direct anti cancer activity”.
In the case of `O=c1oc2cc(O)ccc2c2ccccc12` [urolithin B], in data set [1], the “mean diameter size of myotubes” value is 32.6. Further, the size of myotubes result in data set [1] (urolithin B at 15 μM) is recorded as “significantly increased”. The toxicity entry in the data set with C2C12 myoblasts was “no toxicity”. For the same compound, the mTOR phosphorylation entry in the data set on mTOR is given as “strong”. In the data set on Akt, the Akt phosphorylation entry was “does not induce”. Also, the PRAS40 phosphorylation entry with PRAS40 is “does not induce”. Also, the AMPK phosphorylation result in the data set on AMPK is on record as “strong reduction”. Moreover, the androgen-receptor agonist result in the data set on androgen receptor was “agonist”. For the same compound, the “weight loss of denervated muscle” value in the data set with denervated muscle is “prevents”. In addition, the “antioxidant and anti-inflammatory properties” value in data set [3] was “much weaker”. The “amount in the blood” value in data set [4] is recorded as “much lower”. The anti cancer activity entry in [2] was “direct anti cancer activity”.
